For orientation: inhibition means the percentage by which the read-out fell short of the control. A high value points to a response far below the control.

In one assay the target is T1, Adrenergic α1B (Rattus norvegicus, UniProt P15823).
T1 construct: Eurofins 203200; host or cells: crude membrane preparation
Kind of assay: Receptor binding 203200. As for the experimental part:
(§1) Radioligand binding to a panel of receptors was carried out by Eurofins on crude membrane preparations according to published procedures and by using appropriate reference standard (Eurofins, CVie 101 compound code PT #1207859, study #AB76416, quote #68407-1, for Cvie Therapeutics Limited, Taiwan (R.OC.) on Mar. 5, 2017). CVie 101 was tested at the concentration of 10 μM. No significant interaction was documented, except for Sodium Channel, site 2 from rat (cat #279510), where a significant response (≥50%) was noted (Table 7).

The next assay has as its target T2, Aldosterone (Rattus norvegicus, UniProt P22199).
T2 construct: Eurofins 204600
As to the kind of experiment: Receptor binding 204600. Here is the method: as §1

Assay [1] concerns Glutamate, NMDA, Phencyclidine. As to the kind of experiment: Receptor binding 233000. The conditions noted are these: 10 μM. More on the design: species or system rat. As for the experimental part:
as §1

The target of another assay is T3, Muscarinic M2 (Homo sapiens, UniProt P08172).
T3 construct: Eurofins (contract assay) 252710
Kind of assay: Receptor binding 252710. As for the experimental part: as §1

A further assay has as its system Phorbol Ester. Kind of assay: Receptor binding 264500. More on the design: species or system mouse. The settings on record: 10 μM. As for the experimental part: as §1
For the next assay, the target named is T4, Sigma σ1 (Homo sapiens, UniProt Q99720).
T4 construct: Eurofins (contract assay) 278110
As to the kind of experiment: Receptor binding 278110. As for the experimental part:
as §1

T3 sequence (P08172 whole entry): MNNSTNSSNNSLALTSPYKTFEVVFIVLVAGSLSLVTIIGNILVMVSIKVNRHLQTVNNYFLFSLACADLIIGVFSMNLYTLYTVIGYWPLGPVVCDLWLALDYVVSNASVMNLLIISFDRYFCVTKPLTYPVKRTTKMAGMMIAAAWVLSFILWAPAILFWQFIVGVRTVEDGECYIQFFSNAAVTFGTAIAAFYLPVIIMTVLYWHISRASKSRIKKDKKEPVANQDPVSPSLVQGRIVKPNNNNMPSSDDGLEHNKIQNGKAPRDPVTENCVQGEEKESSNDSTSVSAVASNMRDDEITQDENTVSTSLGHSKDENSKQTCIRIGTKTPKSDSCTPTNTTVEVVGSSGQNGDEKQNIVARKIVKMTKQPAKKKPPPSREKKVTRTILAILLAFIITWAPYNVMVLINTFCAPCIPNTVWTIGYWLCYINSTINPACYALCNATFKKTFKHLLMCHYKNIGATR
T1 sequence (P15823 whole entry): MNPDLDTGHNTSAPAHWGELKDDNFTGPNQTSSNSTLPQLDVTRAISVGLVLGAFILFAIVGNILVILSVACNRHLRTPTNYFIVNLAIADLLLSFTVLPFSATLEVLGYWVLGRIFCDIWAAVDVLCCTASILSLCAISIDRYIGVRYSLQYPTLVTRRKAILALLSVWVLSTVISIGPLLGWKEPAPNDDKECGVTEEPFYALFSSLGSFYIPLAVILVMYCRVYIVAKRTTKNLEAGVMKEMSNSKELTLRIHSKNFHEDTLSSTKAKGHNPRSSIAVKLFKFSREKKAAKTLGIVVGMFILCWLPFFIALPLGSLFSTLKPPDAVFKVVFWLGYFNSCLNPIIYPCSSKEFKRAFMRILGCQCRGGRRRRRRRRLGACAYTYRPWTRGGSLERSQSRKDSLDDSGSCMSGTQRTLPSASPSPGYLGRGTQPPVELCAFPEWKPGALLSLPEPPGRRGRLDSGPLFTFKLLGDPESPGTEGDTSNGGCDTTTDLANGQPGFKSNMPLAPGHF
T4 sequence (Q99720 whole entry): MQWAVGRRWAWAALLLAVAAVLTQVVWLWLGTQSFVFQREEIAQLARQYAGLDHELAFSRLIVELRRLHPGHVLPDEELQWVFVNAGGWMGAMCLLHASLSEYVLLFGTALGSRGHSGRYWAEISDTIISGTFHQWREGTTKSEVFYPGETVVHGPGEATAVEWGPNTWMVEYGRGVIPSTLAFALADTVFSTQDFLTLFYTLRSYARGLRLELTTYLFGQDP
T2 sequence (P22199 whole entry): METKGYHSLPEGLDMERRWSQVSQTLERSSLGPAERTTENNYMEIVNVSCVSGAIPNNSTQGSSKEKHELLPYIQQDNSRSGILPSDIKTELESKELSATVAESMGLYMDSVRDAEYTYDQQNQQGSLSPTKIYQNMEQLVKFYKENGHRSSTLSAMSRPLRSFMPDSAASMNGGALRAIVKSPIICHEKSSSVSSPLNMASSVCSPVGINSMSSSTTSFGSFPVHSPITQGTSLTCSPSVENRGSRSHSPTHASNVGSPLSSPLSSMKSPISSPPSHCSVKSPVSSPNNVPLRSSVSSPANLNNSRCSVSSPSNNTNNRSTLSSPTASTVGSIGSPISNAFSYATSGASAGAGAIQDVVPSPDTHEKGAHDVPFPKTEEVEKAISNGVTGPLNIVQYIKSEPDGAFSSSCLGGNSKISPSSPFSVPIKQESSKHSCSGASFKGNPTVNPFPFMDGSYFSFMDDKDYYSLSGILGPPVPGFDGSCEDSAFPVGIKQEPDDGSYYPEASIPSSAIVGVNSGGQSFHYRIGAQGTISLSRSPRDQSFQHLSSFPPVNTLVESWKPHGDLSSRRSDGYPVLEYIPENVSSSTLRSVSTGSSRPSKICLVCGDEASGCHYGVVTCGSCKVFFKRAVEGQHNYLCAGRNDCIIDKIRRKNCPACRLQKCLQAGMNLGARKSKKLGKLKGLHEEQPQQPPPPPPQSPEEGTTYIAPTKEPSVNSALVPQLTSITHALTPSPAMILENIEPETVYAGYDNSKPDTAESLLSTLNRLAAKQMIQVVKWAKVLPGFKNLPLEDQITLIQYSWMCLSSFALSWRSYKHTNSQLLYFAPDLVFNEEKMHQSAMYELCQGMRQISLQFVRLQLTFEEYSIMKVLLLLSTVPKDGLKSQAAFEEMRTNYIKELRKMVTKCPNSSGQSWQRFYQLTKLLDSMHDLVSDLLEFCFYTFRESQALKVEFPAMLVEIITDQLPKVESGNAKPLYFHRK

Take `C[C@]12CC[C@H](O)C[C@H]1CCC1C2CC[C@]2(C)[C@@H](c3c[nH]cn3)CC[C@]12O` (stereo partly drawn) [CVie 101, 3β-hydroxy-5β-10β-methyl-13β-methyl-14β-hydroxy-17β-(imidazol-4-yl)androstane]: the inhibition at 10 µM at Adrenergic α1B worked out at 0%; at Aldosterone, 6%; on Muscarinic M2, 7%; on Sigma σ1 it was 23%. The “% inhib” value in assay [1] is on record as 7%; with Phorbol Ester it was −4%.

The values are drawn from patent publication US11730746B2, “17beta-heterocyclyl-digitalis like compounds for the treatment of heart failure” (priority 2018, dated 2023).
